Assay results as given in publication PMC7555276, “Using Ex Vivo Porcine Jejunum to Identify Membrane Transporter Substrates: A Screening Tool for Early—Stage Drug Development” (Biomedicines, 2020).
In brackets after ≈: the same amount, converted by molar mass. Where two headings read alike, the source gives them in different places. Blank lines part the entries; values can stand above or below the molecule they belong to.

Legend:
[1] = Ussing chamber permeation across ex vivo porcine jejunum; assay type: in vitro ADME, pig; conditions: female, Swiss noble, pig
From the text: (§1) Fresh jejunum from female, 6 month-old Swiss noble pigs was harvested immediately after slaughter (Abattoir de […], Switzerland and Abattoir de Loëx; Bernex, Switzerland). […] Briefly, the intestine was opened along the mesenteric border and carefully rinsed with ice-cold KBR. […] A six Ussing chamber system was used for the intestinal transport experiments (Physiologic Instruments; San Diego, CA, USA). The Ussing chambers were set up on a heating block connected to a VCC MC6 MultiChannel voltage-current clamp via six input modules, containing integral dummy membranes. A temperature of 38 °C (porcine body temperature) was maintained using a circulating water bath (ED-5, Julabo GmbH, Seelbach, Germany). The Ussing chamber system was set up following the protocol of […] et al. […] In a first step, the acceptor and donor compartments of the Ussing chamber were filled with preheated KBR, and any voltage difference between the electrodes and the electrical resistance due to the buffer solution was eliminated. […] The choice of all substrates and inhibitors was based on the University of California, San Francisco-Food and Drug Administration (UCSF-FDA) TransPortal. The substrates tested, their physicochemical properties and the inhibitors used are described in Table 1. […] The integrity of the intestinal tissue was monitored throughout the experiment by measurement of the transepithelial resistance (TEER). […] At the end of the experiment, samples were taken from the acceptor and the donor compartment. The intestinal tissue was cut into little pieces and extracted for 6 h at room temperature in the mobile phase used for the UHPLC-MS/MS analysis (see Supplementary Information). […] Mass spectrometry was performed in multiple reaction monitoring (MRM) mode. All details of the analytical methods used for each of the molecules tested can be found in the Supplementary Information.

[2] = system: ex vivo porcine jejunum; test: as above; assay type: in vitro ADME, pig; conditions: for QPERM (+INH) / QDEP (+INH): presence of the corresponding transporter inhibitor (as E19); for change of Papp,pig in the presence of the corresponding inhibitor / change of QDEP in the presence of the corresponding inhibitor: statistical comparison, α = 0.05, inhibitors as E19; for Papp,pig fold lower than Papp,human: vs reported ex vivo human intestine
From the text: as §1

[3] = Solubility in KBR buffer; assay type: physicochemical; conditions: aqueous buffer, Krebs-bicarbonate ringer buffer pH 7.4
[4] = set-up: method as in earlier work; conditions: cited from earlier work
[5] = system: rat intestine; conditions: absence of inhibitor; cited from earlier work
[6] = system: P-gp; conditions: substrate of P-gp, cited from earlier work
[7] = system: human intestine; set-up: method as in PMID 23103351, PMID 21416475; conditions: absence of inhibitor; cited from earlier work
[8] = system: BCRP; conditions: cited from earlier work
[9] = system: MRP2; conditions: cited from earlier work
[10] = system: PEPT1; set-up: method as in PMID 18824524; conditions: inhibitor of PEPT1; cited from earlier work
[11] = system: porcine intestine (ileum, jejunum); set-up: method as in PMID 30901927; conditions: porcine ileum and jejunum; cited from earlier work
[12] = system: OCT1; conditions: substrate of OCT1; cited from earlier work
[13] = system: OATP2B1; conditions: cited from earlier work
[14] = pH 7.4, absence of inhibitor, substrate 100 µM (digoxin 50 µM), 38 °C, KBR, read-out: Papp,pig (−INH)
[15] = drug in acceptor compartment at t = 2 h, absence of inhibitor
[16] = drug in acceptor compartment at t = 2 h
[17] = drug retained in intestinal membrane at t = 2 h, absence of inhibitor
[18] = drug retained in intestinal membrane at t = 2 h
[19] = Krebs-bicarbonate ringer (KBR) buffer
[20] = female, Swiss noble, pig, 2 h, pH 7.4

Compound: CC(C)n1c(/C=C/C(O)CC(O)CC(=O)O)c(-c2ccc(F)cc2)c2ccccc21 (stereo not drawn) [Fluvastatin]
Ki ([8]; inhibitor of BCRP): 5.43 µM

Compound: COc1ccc2c(c1)c(CC(=O)O)c(C)n2C(=O)c1ccc(Cl)cc1 [Indomethacin]
IC50 ([9]; inhibitor of MRP2): 0.06 µM

Compound: CCCCc1nc(Cl)c(CO)n1Cc1ccc(-c2ccccc2-c2nn[nH]n2)cc1 [Losartan]
IC50 [10]: 52 µM | Ki [10]: 24 µM

Compound: CN(CCOc1ccc(CC2SC(=O)NC2=O)cc1)c1ccccn1 (stereo not drawn) [Rosiglitazone]
IC50 ([13]; inhibitor of OATP2B1): 5.2 µM

Compound: CC(C)c1nc(N(C)S(C)(=O)=O)nc(-c2ccc(F)cc2)c1/C=C/[C@@H](O)C[C@@H](O)CC(=O)O [Rosuvastatin]
Papp at 120 min [1, 14]: 0.91 ± 0.64 ×10⁻⁶ cm/s | QPERM (−INH) [2, 15]: 0.17 ± 0.09 (7) % | QPERM (+INH) [2, 16]: 0.29 ± 0.16 (6) % | QDEP (−INH) [2, 17]: 3.10 ± 1.46% | QDEP (+INH) [2, 18]: 1.30 ± 0.14% | change of Papp,pig in the presence of the corresponding inhibitor [2]: significantly increased | change of QDEP in the presence of the corresponding inhibitor [2]: significantly decreased | Papp,pig fold lower than Papp,human [2]: ~ 9 fold | solubility [3, 19]: 420 ± 160 µg/mL (≈ 0.872 mM) | log P [4]: 0.13 | Km ([13]; substrate of OATP2B1): 2.4 µM | Papp,human (−INH) [7]: 6.95 ± 1.50 [30] 10^−6 cm/s

Compound: CN/C(=N/CCSCc1nc[nH]c1C)NC#N [cimetidine]
effect of P-gp inhibition on Papp,pig [11]: significant increase of Papp,pig in the ileum, but not in the jejunum

More lines, main results first:

Papp at 120 min [1, 14]: 2.82 ± 0.2 ×10⁻⁶ cm/s | Papp,pig fold lower than Papp,rat ([2]; corresponding segment of the intestine): ~ 1.8 fold | QPERM (−INH) [2, 15]: 0.50 ± 0.18 (4) % | QPERM (+INH) [2, 16]: 0.31 ± 0.12 (6) % | QDEP (−INH) [2, 17]: 1.31 ± 0.40% | QDEP (+INH) [2, 18]: 1.47 ± 0.25% | change of Papp,pig in the presence of the corresponding inhibitor [2]: statistically significant decrease | solubility [3, 19]: 45000 ± 1100 µg/mL (≈ 124 mM)
Compound: CC1=C(C(=O)O)N2C(=O)[C@@H](NC(=O)[C@H](N)c3ccc(O)cc3)[C@H]2SC1 [Cefadroxil]
log P [4]: −0.4 | Papp,rat (−INH) [5]: 4.99 ± 0.50 [70] 10^−6 cm/s

Papp at 120 min ([1]; pH 7.4, Papp,pig (−INH)): 0.38 ± 0.23 ×10⁻⁶ cm/s | QDEP (−INH) [2, 20]: 0.62 ± 0.17% | QPERM (−INH) [2, 20]: 0.21 ± 0.12 (4) % | change of Papp,pig in the presence of the corresponding inhibitor [2]: significantly increased | solubility [3]: 40 ± 10 µg/mL (≈ 0.0512 mM)
Compound: C[C@H]1O[C@@H](O[C@H]2[C@@H](O)C[C@H](O[C@H]3[C@@H](O)C[C@H](O[C@H]4CC[C@@]5(C)[C@H](CC[C@@H]6[C@@H]5C[C@@H](O)[C@]5(C)[C@@H](C7=CC(=O)OC7)CC[C@]65O)C4)O[C@@H]3C)O[C@@H]2C)C[C@H](O)[C@@H]1O [Digoxin]
Km ([6]; ref 58): 73 µM | Km ([6]; ref 95): 0.73 µM | Papp,rat (−INH) [5]: 6.4 ± 1.9 [14] 10^−6 cm/s | Papp,human (−INH) [7]: 1.44 ± 0.72 [30] 10^−6 cm/s

Papp at 120 min [1, 14]: 5.07 ± 0.83 ×10⁻⁶ cm/s | QPERM (−INH) [2, 15]: 0.62 ± 0.17 (12) % | QPERM (+INH) [2, 16]: 0.21 ± 0.03 (5) % | QDEP (−INH) [2, 17]: 1.11 ± 0.46% | QDEP (+INH) [2, 18]: 0.43 ± 0.12% | change of Papp,pig in the presence of the corresponding inhibitor [2]: significant decrease | change of QDEP in the presence of the corresponding inhibitor [2]: significant decrease | solubility [3, 19]: 19600 ± 2780 µg/mL (≈ 62.5 mM)
Compound: CNC(=C[N+](=O)[O-])NCCSCc1ccc(CN(C)C)o1 [Ranitidine]
Km ([6]; ref 93): 270 µM | Papp,rat (−INH) [5]: 4.00 [72] 10^−6 cm/s | Papp,human (−INH) [7]: 5.50 [72] 10^−6 cm/s | effect of P-gp inhibition on Papp,pig [11]: significant increase of Papp,pig in the ileum, but not in the jejunum | Km [12]: 70 µM

Papp at 120 min [1, 14]: 0.006 ± 0.004 ×10⁻⁶ cm/s | fold increase of Papp,pig in the presence of the inhibitor ([2]; digoxin+verapamil, sulfasalazine+fluvastatin): 100 fold | QPERM (+INH) [2, 16]: 0.12 ± 0.07 (9) % | QDEP (−INH) [2, 17]: 3.23 ± 0.56% | QDEP (+INH) [2, 18]: 2.47 ± 1.24% | Papp,pig fold lower than Papp,human [2]: ~ 10 fold | solubility [3, 19]: 3310 ± 140 µg/mL (≈ 8.31 mM)
Compound: O=C(O)c1cc(/N=N/c2ccc(S(=O)(=O)Nc3ccccn3)cc2)ccc1O [Sulfasalazine]
log P [4]: 0.4 | Km ([8]; substrate of BCRP): 0.7 µM | Papp,rat (−INH) [5]: 2.76 ± 0.19 [73] 10^−6 cm/s | Papp,human (−INH) [7]: 0.09 ± 0.06 [30] 10^−6 cm/s

Papp at 120 min [1, 14]: 1.2 ± 0.1 ×10⁻⁶ cm/s | QPERM (−INH) [2, 15]: 0.17 ± 0.02 (4) % | QPERM (+INH) [2, 16]: 0.24 ± 0.10 (4) % | QDEP (−INH) [2, 17]: 0.44 ± 0.02% | QDEP (+INH) [2, 18]: 0.57 ± 0.07% | change of Papp,pig in the presence of the corresponding inhibitor [2]: No significant difference | change of QDEP in the presence of the corresponding inhibitor [2]: significantly higher
Compound: CCCCC(=O)N(Cc1ccc(-c2ccccc2-c2nnn[nH]2)cc1)[C@H](C(=O)O)C(C)C [Valsartan]
Km ([9]; substrate of MRP2): 30.4 µM
